# Literature values, collected in patent publication US20200224165A1, “METHODS AND COMPOSITIONS FOR REJUVENATION” (priority 2016, published 2020).
# Settings: without irradiation and chemotherapy
smiles,measurement,value
c1cc(CN2CCCNCCNCCCNCC2)ccc1CN1CCCNCCNCCCNCC1 [AMD3100],effectiveness as conditioning for HSCT,not to be sufficiently effective
